The values that follow come from patent US10336697B2, “Spiro[cyclobutane-1,3′-indolin]-2′-one derivatives as bromodomain inhibitors” (Orion Corporation, priority 2015, dated 2019).

SMILES strings stand for the structures. pIC50: −log10 of the molar value. A value given as a limit tells only on which side of the number the result lay.

This assay deals with Bet BRD4 full length bromo-domain protein (Homo sapiens, UniProt O60885). In words: Bet bromodomain TR-FRET assay (displacement of acetyl histone peptide). To be noted: Bet BRD4 full length bromodomain protein, 300 nM acetyl histone peptide substrate, read-out: IC50. The format is binding. (Time-resolved FRET reads energy transfer from a long-lived donor to a nearby acceptor.)

In general, pIC50 refers to the negative decadic logarithm of the IC50, by convention in mol/L. With `CC(C)(O)C1CCN(C(=O)c2cc(NS(=O)(=O)c3ccc(F)cc3F)cc3c2NC(=O)C32CCC2)CC1` [Compound 59, 2,4-Difluoro-N-(7′-(4-(2-hydroxypropan-2-yl)piperidine-1-carbonyl)-2′-oxospiro[cyclobutane-1,3′-indolin]-5′-yl)benzenesulfonamide], the pIC50 is less than 6.00. For `O=C1Nc2c(NC3CCNCC3)cc(NS(=O)(=O)c3ccc(F)cc3F)cc2C12CCC2` [Compound 79a, 2,4-Difluoro-N-(2′-oxo-7′-(piperidin-4-ylamino)spiro [cyclobutane-1,3′-indolin]-5′-yl)benzenesulfonamide] the value was more than 6.22; for `CC(=O)Nc1cc(NS(=O)(=O)c2ccc(F)cc2F)cc2c1NC(=O)C21CCC1` [Compound 63, N-(5′-((2,4-difluorophenyl)sulfonamido)-2′-oxospiro[cyclobutane-1,3′-indolin]-7′-yl)acetamide], 6.00 to 6.22; for `O=C(c1cc(NS(=O)(=O)c2ccc(F)cc2F)cc2c1NC(=O)C21CCC1)N1CCOCC1` [Compound 48, 2,4-Difluoro-N-(7′-(morpholine-4-carbonyl)-2′-oxospiro [cyclobutane-1,3′-indolin]-5′-yl)benzenesulfonamide], less than 6.00. Consider `CN1CCC(NC(=O)c2cc(NS(=O)(=O)c3ccccc3F)cc3c2NC(=O)C32CCC2)CC1` [Compound 73, 5′-(2-Fluorophenylsulfonamido)-N-(1-methylpiperidin-4-yl)-2′-oxospiro[cyclobutane-1,3′-indoline]-7′-carboxamide], for which the negative-log IC50 (pIC50) is more than 6.22. Under `COc1ccc(S(=O)(=O)Nc2cc(C3CCNCC3)c3c(c2)C2(CCC2)C(=O)N3)c(OC)c1` [Compound 92, 2,4-Dimethoxy-N-(2′-oxo-7′-(piperidin-4-yl)spiro[cyclobutane-1,3′-indolin]-5′-yl)benzenesulfonamide] stands more than 6.22; under `O=C(NC1CCOCC1)c1cc(NS(=O)(=O)c2ccc(F)cc2F)cc2c1NC(=O)C21CCC1` [Compound 50, 5′-(2,4-Difluorophenylsulfonamido)-2′-oxo-N-(tetrahydro-2H-pyran-4-yl)spiro[cyclobutane-1,3′-indoline]-7′-carboxamide], more than 6.22; under `CN1CCC(Oc2cc(NS(=O)(=O)c3ccc(F)cc3Cl)cc3c2NC(=O)C32CCC2)CC1` [Compound 134, 2-Chloro-4-fluoro-N-(7′-((1-methylpiperidin-4-yl)oxy)-2′-oxospiro[cyclobutane-1,3′-indolin]-5′-yl)benzenesulfonamide], more than 6.22.

For `COc1ccccc1S(=O)(=O)Nc1cc(Oc2ccccn2)c2c(c1)C1(CCC1)C(=O)N2` [Compound 124, 2-Methoxy-N-(2′-oxo-7′-(pyridin-2-yloxy)spiro[cyclobutane-1,3′-indolin]-5′-yl)benzenesulfonamide], the pIC50 was more than 6.22. On to `CN1CCc2ccc(-c3cc(NS(=O)(=O)c4ccc(F)cc4F)cc4c3NC(=O)C43CCC3)cc2C1=O` [Compound 6, 2,4-Difluoro-N-(7′-(2-methyl-1-oxo-1,2,3,4-tetrahydroisoquinolin-7-yl)-2′-oxospiro[cyclobutane-1,3′-indolin]-5′-yl)benzenesulfonamide], for which the negative-log IC50 (pIC50) is 6.00 to 6.22. For `COc1ccccc1S(=O)(=O)Nc1cc(OC(C)CN(C)C)c2c(c1)C1(CCC1)C(=O)N2` (stereo not shown) [Compound 166, N-(7′-((1-(dimethylamino)propan-2-yl)oxy)-2′-oxospiro[cyclobutane-1,3′-indolin]-5′-yl)-2-methoxybenzenesulfonamide] the value was more than 6.22.

As to `CNCCOc1cc(NS(=O)(=O)c2ccccc2OC)cc2c1NC(=O)C21CCC1` [compound 204, 2-Methoxy-N-(7′-(2-(methylamino)ethoxy)-2′-oxospiro[cyclobutane-1,3′-indolin]-5′-yl)benzenesulfonamide], the negative-log IC50 (pIC50) is more than 6.22. Under `COc1ccccc1S(=O)(=O)Nc1cc(C(C)c2cccnc2)c2c(c1)C1(CCC1)C(=O)N2` (stereo not shown) [Compound 122, 2-Methoxy-N-(2′-oxo-7′-(1-(pyridin-3-yl)ethyl)spiro[cyclobutane-1,3′-indolin]-5′-yl)benzenesulfonamide] stands more than 6.22.
